In US20090099167A1, “Organic compounds” (Novartis Institutes for Biomedical Research, priority 2004, published 2009):

Tests used:
[1] = target: T1, human EphB4 receptor (Homo sapiens, UniProt P54760); assay: EphB4 kinase assay, GST-EphB, 33P incorporation into poly(Glu,Tyr); format: biochemical; settings: Table 5; read-out: EphB4, IC50 class
T1 construct: made in house; host or cells: Sf9 or Sf21 (baculovirus)
T1 sequence (P54760 566-987): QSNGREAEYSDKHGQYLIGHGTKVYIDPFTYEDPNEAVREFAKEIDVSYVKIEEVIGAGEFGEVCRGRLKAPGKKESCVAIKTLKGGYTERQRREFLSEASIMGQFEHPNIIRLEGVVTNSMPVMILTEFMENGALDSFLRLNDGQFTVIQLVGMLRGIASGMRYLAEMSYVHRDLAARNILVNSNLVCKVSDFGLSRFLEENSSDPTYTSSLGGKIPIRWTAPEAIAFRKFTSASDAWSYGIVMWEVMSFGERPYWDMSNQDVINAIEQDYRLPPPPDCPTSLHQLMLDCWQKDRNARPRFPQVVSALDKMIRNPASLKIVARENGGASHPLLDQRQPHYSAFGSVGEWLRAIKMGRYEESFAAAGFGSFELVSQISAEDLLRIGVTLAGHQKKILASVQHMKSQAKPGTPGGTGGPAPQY

| IC50 [1] [nM] | melting point [°C] | SMILES |
| --- | --- | --- |
| < 1000 | 197 to 200 | CN1CCN(c2ccc(-c3cnn4c(N)c(-c5ccccc5Cl)cnc34)cc2)CC1 [Example 77, 6-(2-Chloro-phenyl)-3-[4-(4-methyl-piperazin-1-yl)-phenyl]-pyrazolo[1,5-a]pyrimidin-7-ylamine] |
| < 1000 | 72 to 75 | CN1CCN(c2cccc(-c3cnn4c(N)c(Cc5ccccc5)cnc34)c2)CC1 [Example 91, 6-Benzyl-3-[3-(4-methyl-piperazin-1-yl)-phenyl]-pyrazolo[1,5-a]pyrimidin-7-ylamine] |
| < 1000 | 172 to 174 | Cc1nc2c(-c3cccc(N4CCN(CCO)CC4)c3)cnn2c(N)c1-c1ccc(F)c(F)c1 [Example 101, 2-(4-{3-[7-Amino-6-(3,4-difluoro-phenyl)-5-methyl-pyrazolo[1,5-a]pyrimidin-3-yl]-phenyl}-piperazin-1-yl)-ethanol] |
